ChEMBL document CHEMBL3745605, “Aspernigrins with anti-HIV-1 activities from the marine-derived fungus Aspergillus niger SCSIO Jcsw6F30” (Bioorg Med Chem Lett, 2016)
The source made the active and inactive calls. The calls are words filed in the database; no cut-off is given here. Bridge positions count the residues as written; N and C are the ends. Square brackets hold non-standard residues; d marks the D form. Peptide text beside a SMILES is read from it.

Key:
[1] = system: Human immunodeficiency virus 1; assay: Antiviral activity against HIV-1 SF162 infected in TZM-bl cells after 2 days by luciferase reporter gene assay; assay type: functional, cell-based; settings: Human immunodeficiency virus 1, SF162 ISOLATE, 48 h
[2] = system: Human immunodeficiency virus 1; assay: Antiviral activity against HIV-1 SF162 infected in TZM-bl cells at 50 uM after 2 days by luciferase reporter gene assay; assay type: functional, cell-based; settings: SF162 ISOLATE
[3] = Cytotoxicity against human TZM-bl cells after 2 days by colorimetric XTT assay; assay type: cell-based
[4] = Selectivity index, ratio of CC50 for human TZM-bl cells to IC50 for HIV-1 SF162 infected in TZM-bl cells; assay type: functional

SMILES | IC50 [1] | Activity [2] | CC50 at 48 h [3] | Ratio CC50/IC50 [4]
COc1ccc(S(=O)(=O)O)cc1/N=N/c1c(S(=O)(=O)O)cc2cc(Nc3nc(Nc4ccccc4)nc(Nc4cc(C)c(/N=N/c5cc(S(=O)(=O)O)cc6cc(S(=O)(=O)O)cc(O)c56)cc4OC)n3)ccc2c1O | 1.8 µM |  |  | 
COc1cc(O)cc2cc3c(c(O)c12)C(=O)CC(C)(O)O3 (stereo not drawn) |  | inactive |  | 
NC(=O)c1c[nH]c(Cc2ccccc2)cc1=O | 83.2 µM |  | 583 µM | 7
COc1cc([C@H](Cc2ccccc2)n2cc(C(=O)NC(=O)C[C@H](C)C(=O)O)c(=O)cc2Cc2ccccc2)oc(=O)c1 | 4.7 µM |  | 35 µM | 7.5
COc1cc(O)c2c(O)c3c(=O)cc(C)oc3cc2c1 [RUBROFUSARIN] | 56.2 µM |  | 1020 µM | 18.1
Nc1nc(NC2CC2)c2ncn([C@H]3C=C[C@@H](CO)C3)c2n1 [ABACAVIR] | 0.8 µM |  |  | 
COc1cc([C@H](Cc2ccccc2)n2cc(C(N)=O)c(=O)cc2Cc2ccccc2)oc(=O)c1 |  | inactive |  | 
CC(C)C[C@@H]1NC(=O)[C@@H](CC(C)C)NC(=O)[C@H](C(C)C)NC(=O)[C@H]2CSSC[C@@H](NC1=O)C(=O)N2 (cyclo(L[dC][dC]V[dL]); disulfide 2-3) | 1.4 µM |  | 16.4 µM | 11.4
COc1cc(OC)c2c(O)c3c(=O)cc(C)oc3cc2c1 |  | inactive |  | 
COC(=O)[C@@H](C)CC(=O)NC(=O)c1cn([C@@H](Cc2ccccc2)c2cc(OC)cc(=O)o2)c(Cc2ccccc2)cc1=O |  | inactive |  | 
